pIC50: −log10 of the molar value. Ends that are not written are not given here.

Sequence of H-2D^b (P01899 25-362): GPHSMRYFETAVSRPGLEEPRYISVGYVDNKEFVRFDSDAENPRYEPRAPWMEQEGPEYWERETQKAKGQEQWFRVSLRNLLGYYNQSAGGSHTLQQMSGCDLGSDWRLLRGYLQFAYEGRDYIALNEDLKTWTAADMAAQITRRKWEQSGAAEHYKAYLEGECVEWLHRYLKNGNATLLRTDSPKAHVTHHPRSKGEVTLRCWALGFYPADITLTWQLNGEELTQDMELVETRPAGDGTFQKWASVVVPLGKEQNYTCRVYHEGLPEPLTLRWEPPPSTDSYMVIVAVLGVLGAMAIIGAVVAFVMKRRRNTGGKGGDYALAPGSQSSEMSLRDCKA
Sequence of H-2D^b (P61769 21-119, further chain): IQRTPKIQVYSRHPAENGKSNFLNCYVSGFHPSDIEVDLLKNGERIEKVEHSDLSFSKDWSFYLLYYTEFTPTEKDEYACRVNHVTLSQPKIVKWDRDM

The first experiment addresses H-2D^b (Mus musculus, UniProt P01899).
Assay: not given
The note with it: read-out: average IC50 of the radiolabeled standard peptide; cited from earlier work.
SGPSNTYPEI: the pIC50 was 8.36.

The target in another experiment is H-2K^b (Mus musculus, UniProt P01901). In words: biochemical.
Sequence of H-2K^b (P01901 22-369): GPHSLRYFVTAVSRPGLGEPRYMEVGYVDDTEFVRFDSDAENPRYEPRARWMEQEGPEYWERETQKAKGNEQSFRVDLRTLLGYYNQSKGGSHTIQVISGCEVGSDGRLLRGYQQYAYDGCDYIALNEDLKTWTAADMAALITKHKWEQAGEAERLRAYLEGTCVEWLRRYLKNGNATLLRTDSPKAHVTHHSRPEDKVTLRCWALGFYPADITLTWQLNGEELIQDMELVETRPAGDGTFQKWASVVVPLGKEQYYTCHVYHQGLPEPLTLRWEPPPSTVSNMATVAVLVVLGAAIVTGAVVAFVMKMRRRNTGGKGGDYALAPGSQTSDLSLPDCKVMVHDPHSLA
Sequence of H-2K^b (P61769 21-119, further chain): as the sequence (P61769 21-119, further chain) above
Settings: not given
In kind it is binding.
For the sequence LAVLFINSI [LAVLFINSI], the negative logarithm of the IC50 (pIC50) is 7.55.
Still for that read-out and setting: as for WQTMYTNV [WQTMYTNV], the figure is 8.18; as for TSYKFESV [B8R20-27], 9.72.
The same measure, in the same setting: as for KVEEYCTGL [KVEEYCTGL], the figure is 6.89.
Still for that read-out and setting: as for ISLKNYGI [ISLKNYGI], the figure is 7.80.

As a reminder, the pIC50 is the IC50 on a negative log10 scale, so that one unit is a factor of ten.
